Results taken from US8722895B2, “Prolyl hydroxylase inhibitors and method of use” (Akebia Therapeutics Inc., priority 2006, dated 2014).

Experiments:
[1] = test system: EPO; assay: Mouse Serum EPO Assay (mouse ischemic hindlimb study); assay type: in vivo; conditions: for EPO response: in vivo response, mouse serum EPO
Procedure: (§1) Mouse Ischemic Hindlimb Study
(§2) All animal work is conducted in accordance with the Guide for the Care and Use of Laboratory Animals (National Academy of Sciences; Copyright® 1996) and the Institutional Animal Care and Use Committee guidelines at Procter and Gamble Pharmaceuticals. We studied 9-10 week old male C57B1/6 mice from Charles River Laboratory (Portage, Mich.). The mice are orally dosed with vehicle (aqueous carbonate buffer, 50 mM; pH 9.0) or compound 1 in vehicle at 50 mg/kg or 100 mg/kg. The animals are dosed three times: day 1 at Sam and 5 pm, day 2 at 8 am. One hour after the first dose, unilateral arterial ligation is performed under anesthesia using isoflurane. The femoral artery is ligated proximal to the origin of the popliteal artery. The contralateral limb underwent a sham surgical procedure. Ligation is performed in an alternating fashion between right and left hindlimbs. Two hours after Sam dosing on day 2, we obtained blood by ventricular stick while the mice are anesthetized with isoflurane. Serum samples for EPO analysis are obtained using gel clot serum separation tubes. Heart, liver, and gastrocnemius muscles are harvested, snap-frozen in liquid nitrogen, and stored in −80° C. until use.
The mouse serum EPO is detected using Mouse Quantikine Erythropoietin ELISA kit from R&D Systems according to manufacturer's instructions.

[2] = test system: HIF-1α; assay: Mouse Tissue HIF Western Blot Analysis; assay type: in vivo; conditions: FIG. 1
Procedure: as §1, §2
Mouse Tissue HIF Western Blot Analysis
Tissues from mice stored at −80° C. are powdered with mortar and pestle chilled with liquid nitrogen. […]

| Molecule | EPO response [1] | erythropoietin level versus vehicle in mouse serum ([1]; mouse serum after oral dosing, FIG. 2) | stabilization of HIF-1α in mouse liver (immunoblot of nuclear extracts) [2] |
| --- | --- | --- | --- |
| Cc1ccc(-c2ccc(C(=O)NCC(=O)O)c(O)c2)cc1 [[(3-Hydroxy-4′-methyl-biphenyl-4-carbonyl)-amino]-acetic acid] | yes |  |  |
| Cc1ccc(-c2cnc(C(=O)NCC(=O)O)c(O)c2)cc1 [[(3-Hydroxy-5-(4-methylphenyl)pyridine-2-carbonyl)amino]-acetic acid] | yes |  |  |
| COC(=O)CNC(=O)c1ncc(-c2ccccc2Cl)cc1O [{[5-(2-Chlorophenyl)-3-hydroxy-pyridine-2-carbonyl]-amino}-acetic acid methyl ester] | yes |  |  |
| O=C(O)CNC(=O)c1ncc(-c2ccccc2Cl)cc1O [{[5-(2-Chlorophenyl)-3-hydroxypyridine-2-carbonyl]amino}-acetic acid] | yes |  |  |
| COC(=O)CNC(=O)c1ncc(-c2cccc(Cl)c2)cc1O [{[5-(3-Chloro-phenyl)-3-hydroxy-pyridine-2-carbonyl]-amino}acetic acid methyl ester] | yes |  |  |
| O=C(O)CNC(=O)c1ncc(-c2cccc(Cl)c2)cc1O [{[5-(3-Chlorophenyl)-3-hydroxypyridine-2-carbonyl]amino}-acetic acid] | yes | elevated | stabilization of HIF-1α |
| N#Cc1ccc(-c2cnc(C(=O)NCC(=O)O)c(O)c2)cc1 [{[5-(4-Cyanophenyl)-3-hydroxypyridine-2-carbonyl]amino}-acetic acid] | yes |  |  |
| {[5-(4-Chlorophenyl)-3-hydroxypyridine-2-carbonyl]amino}-acetic acid | yes |  |  |
